According to patent US9770436B2, “Polymorphs of azabicyclohexane” (EUTHYMICS BIOSCIENCE, INC., priority 2004, dated 2017):

Key:
[1] = Informal storage stability of the Example 1 hydrochloride salt (50% by weight mixture of polymorph forms A and B) in desiccators; polymorph content by XRPD and Raman; assay type: physicochemical; conditions: started as 50% (by weight) A / 50% B, XRPD
Method: The X-ray powder diffraction pattern (XRPD) analyses of polymorph forms A, B and C were performed with a Shimadzu XRD-6000 X-ray powder diffractometer using Cu Ka radiation. In this procedure the compound as a hydrochloride salt was loaded onto the machine as a crystalline powder. The instrument was equipped with a long fine focus X-ray tube. The tube voltage and amperage were set to 40 kV and 40 mA, respectively. The divergence and scattering slits were set at 1° and the receiving slit was set at 0.15 mm. Diffracted radiation was detected by a Nal scintillation detector. A theta-two theta continuous scan at 3°/min (0.4 sec/0.02° step) from 2.5 to 40° 2θ was used. A silicon standard was analyzed to check the instrument alignment. Data were collected and analyzed using XRD-6000 v. 4.1.
Briefly, Raman spectra were obtained using a FT-Raman 960 (or 860) spectrometer (Thermo Nicolet) interfaced to an 860 FT-IR. This spectrometer uses an excitation wavelength of 1064 nm. Approximately 0.912 W of Nd:YV04 laser power was used to irradiate the samples. The Raman spectra were measured with an indium gallium arsenide (InGaAs) detector. The samples were pressed into pellets for analysis. A total of 128 sample scans were collected from 3600 or 3700-98 cm^−1 at a spectral resolution of about (±) 4 cm^−1, using Happ-Genzel apodization. Wavelength calibration was performed using sulfur and cyclohexane. The Raman spectra peak positions given below in wavenumbers (cm^−1) for the purified polymorph forms A, B and C of the hydrochloride salt of (+)-1-(3,4-dichlorophenyl)-3-azabicyclo[3.1.0]hexane are subject to an error of about (±) 4 cm^−1.
Duplicate samples of the hydrochloride salt of (+)-1-(3,4dichlorophenyl)-3-azabicyclo[3.1.0] hexane produced in Example 1 and containing a 50% (by weight) mixture of polymorph form A and polymorph form B were placed on informal stability to test storage in desiccators placed at ambient temperature and at 50° C. in a programmable heating bloc.

[2] = (+) isomeric form; cited from earlier work
[3] = Thermodynamic stability of the crystalline polymorph forms; assay type: physicochemical; conditions: pure crystalline structure, acid addition salt
[4] = 50° C. programmable heating block, after 17 days of storage
[5] = desiccator, ambient temperature, after 1 week, confirmed by Raman

Cl.Clc1ccc(C23CNCC2C3)cc1Cl (stereo not drawn) [Example 1, hydrochloride salt of (+)-1-(3,4dichlorophenyl)-3-azabicyclo[3.1.0] hexane]
content of polymorph form A after storage [1, 4]: about 50 % (by weight)
content of polymorph form C after storage [1, 4]: 50 % (by weight)
content of polymorph form A after storage [1, 5]: 40 % (by weight)
content of polymorph form B after storage [1, 5]: 60 % (by weight)

Clc1ccc(C23CNCC2C3)cc1Cl (single isomer, unassigned; (+)) [compound of formula I, (+)-1-(3,4-dichlorophenyl)-3-azabicyclo[3.1.0]hexane]
anti-depressive activity [2]: potent anti-depressive activity

Cl.Clc1ccc(C23CNCC2C3)cc1Cl (stereo not drawn) [polymorph form A, hydrochloride salt of (+)-1-(3,4-dichlorophenyl)-3-azabicyclo[3.1.0]hexane]
thermodynamic stability of the polymorph form [3]: thermodynamically stable
